How the values were obtained:
[1] = target: Neuronal acetylcholine receptor subunit alpha-7 (Rattus norvegicus) (UniProt Q05941); conditions: Brain, Membrane
Description: (§2) Displacement of [125I]-alpha-bungarotoxin from alpha7 nAChR in rat brain membrane after 3 hrs

[2] = target: Neuronal acetylcholine receptor; alpha4/beta2 (Rattus norvegicus) (UniProt P09483+P12390); experiment: (§1) Displacement of [3H]cytisine from alpha4beta2 nAChR in rat brain membrane after 3 hrs; format: cell membranes
[3] = target: Neuronal acetylcholine receptor subunit alpha-7 (Rattus norvegicus, UniProt Q05941); format: cell membranes, Brain, Membrane
Neuronal acetylcholine receptor subunit alpha-7, sequence (Q05941 whole entry): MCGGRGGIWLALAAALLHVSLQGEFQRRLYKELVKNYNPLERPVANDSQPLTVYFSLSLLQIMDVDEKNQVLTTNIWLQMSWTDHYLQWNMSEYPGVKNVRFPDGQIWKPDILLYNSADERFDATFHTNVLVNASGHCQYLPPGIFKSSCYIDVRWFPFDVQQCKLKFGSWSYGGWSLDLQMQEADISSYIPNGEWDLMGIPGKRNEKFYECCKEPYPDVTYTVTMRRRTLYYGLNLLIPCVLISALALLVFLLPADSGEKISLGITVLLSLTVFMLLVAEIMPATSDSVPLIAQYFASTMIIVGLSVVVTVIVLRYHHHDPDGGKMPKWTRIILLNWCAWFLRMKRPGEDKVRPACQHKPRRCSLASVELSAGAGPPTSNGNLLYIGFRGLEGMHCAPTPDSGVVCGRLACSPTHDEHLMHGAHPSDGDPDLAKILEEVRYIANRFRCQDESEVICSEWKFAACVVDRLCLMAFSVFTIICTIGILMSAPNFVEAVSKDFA
Description: as §2

[4] = target: Neuronal acetylcholine receptor; alpha4/beta2 (Rattus norvegicus, UniProt P09483+P12390); experiment: as §1; format: cell membranes
Neuronal acetylcholine receptor; alpha4/beta2, sequence (P09483 whole entry): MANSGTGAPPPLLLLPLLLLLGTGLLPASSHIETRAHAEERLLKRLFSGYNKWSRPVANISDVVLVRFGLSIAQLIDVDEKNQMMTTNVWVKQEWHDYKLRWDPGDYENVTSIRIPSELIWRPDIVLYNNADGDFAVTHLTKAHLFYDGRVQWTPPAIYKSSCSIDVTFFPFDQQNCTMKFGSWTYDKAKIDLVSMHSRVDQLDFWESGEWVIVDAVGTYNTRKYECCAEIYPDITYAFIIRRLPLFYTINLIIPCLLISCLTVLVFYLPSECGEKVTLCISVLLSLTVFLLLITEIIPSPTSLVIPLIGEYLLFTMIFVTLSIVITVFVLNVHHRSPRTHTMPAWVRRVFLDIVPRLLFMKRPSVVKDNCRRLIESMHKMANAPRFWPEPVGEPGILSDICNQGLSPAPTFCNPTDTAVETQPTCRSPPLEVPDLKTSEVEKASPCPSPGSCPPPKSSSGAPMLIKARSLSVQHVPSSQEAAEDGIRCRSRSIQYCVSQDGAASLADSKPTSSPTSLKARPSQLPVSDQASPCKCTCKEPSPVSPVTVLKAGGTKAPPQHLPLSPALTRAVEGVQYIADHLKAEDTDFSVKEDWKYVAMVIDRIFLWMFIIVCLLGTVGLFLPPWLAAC
Neuronal acetylcholine receptor; alpha4/beta2, sequence (P12390 whole entry): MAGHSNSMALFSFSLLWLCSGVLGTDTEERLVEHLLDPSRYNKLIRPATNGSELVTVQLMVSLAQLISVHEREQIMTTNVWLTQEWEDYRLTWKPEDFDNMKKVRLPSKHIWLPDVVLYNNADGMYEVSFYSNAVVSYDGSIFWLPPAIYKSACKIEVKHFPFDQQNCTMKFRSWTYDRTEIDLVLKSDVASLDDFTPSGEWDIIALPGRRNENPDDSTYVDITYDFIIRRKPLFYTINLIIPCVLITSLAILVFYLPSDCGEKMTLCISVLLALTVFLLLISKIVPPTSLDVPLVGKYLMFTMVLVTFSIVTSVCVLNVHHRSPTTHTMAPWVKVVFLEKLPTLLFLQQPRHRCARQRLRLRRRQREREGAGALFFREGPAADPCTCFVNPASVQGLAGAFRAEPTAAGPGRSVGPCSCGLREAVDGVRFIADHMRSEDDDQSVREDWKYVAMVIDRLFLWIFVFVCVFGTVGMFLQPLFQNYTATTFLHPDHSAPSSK

Neuronal acetylcholine receptor subunit alpha-7 (Rattus norvegicus), sequence (Q05941 whole entry): as the sequence (Q05941 whole entry) above

Structure (SMILES) | Ki [1] [µM] | Ki [2] [µM] | Ki [3] [µM] | Ki [4] [µM]
C(=C1/CCCN=C1c1cccnc1)/c1ccc2c(c1)OCCO2 | 0.699 | 0.284 |  | 
CCC(CC)Oc1cc(OC)ccc1/C=C1\CCCN=C1c1cccnc1 | 1.3 | 0.367 | 0.05 | 0.43
CSc1ccc(/C=C2\CCCN=C2c2cccnc2)cc1 | 0.602 | 0.046 | 0.25 | 0.9
CC(=O)Oc1ccc(/C=C2\CCCN=C2c2cccnc2)cc1 | 0.77 | 0.602 | 0.17 | 0.25
C(=C1/CCCN=C1c1cccnc1)/c1ccc(N2CCOCC2)cc1 | 0.523 | 0.553 | 0.3 | 0.28
CC(C)(C)C(=O)Oc1ccccc1/C=C1\CCCN=C1c1cccnc1 | 0.187 | 0.158 | 0.65 | 1.44
COc1cc(OC)c(/C=C2\CCCN=C2c2cccnc2)c(OC)c1 | 0.745 | 1.22 | 0.18 | 0.06
N#Cc1ccc(/C=C2\CCCN=C2c2cccnc2)cc1 | 0.362 | 0.09 | 2.3 | 1.23
Nc1ccc(/C=C2\CCCN=C2c2cccnc2)cc1 | 1.3 | 0.921 | 0.05 | 0.12
C(=C1/CCCN=C1c1cccnc1)/c1ccc2c(c1)OCO2 | 0.638 | 0.155 |  | 
C(=C1/CCCN=C1c1cccnc1)/c1ccc(-n2ccnn2)cc1 | 0.072 | 0.284 |  | 
FC(F)Oc1ccccc1/C=C1\CCCN=C1c1cccnc1 |  |  |  | 1.41
Cc1ccc(/C=C2\CCCN=C2c2cccnc2)cc1 | 0.361 | 0.004 | 0.436 | 0.99
COc1ccc2cc(/C=C3\CCCN=C3c3cccnc3)ccc2c1 | 0.432 | 0.222 |  | 
CC(=O)Oc1ccccc1/C=C1\CCCN=C1c1cccnc1 | 0.244 | 0.155 | 0.57 | 0.7
C(=C1/CCCN=C1c1cccnc1)/c1ccccc1 [3-BENZYLIDENEANABASEINE] | 0.222 | 0.071 | 0.6 | 0.85
Oc1ccc(/C=C2\CCCN=C2c2cccnc2)c(O)c1 | 0.699 | 0.678 | 0.2 | 0.21
COc1ccc(/C=C2\CCCN=C2c2cccnc2)c(O)c1 | 0.495 | 0.409 | 0.32 | 0.39
CC(=O)Nc1ccc(/C=C2\CCCN=C2c2cccnc2)cc1 | 0.62 | 0.42 | 0.24 | 0.38
FC(F)(F)Oc1ccccc1/C=C1\CCCN=C1c1cccnc1 |  | 0.246 |  | 1.76
CCN(CC)c1ccc(/C=C2\CCCN=C2c2cccnc2)c(O)c1 | 1.3 | 0.886 | 0.05 | 0.13
Clc1ccc(/C=C2\CCCN=C2c2cccnc2)cc1 | 0.049 | 0.013 | 1.12 | 0.97

Structure (SMILES) | Ki [1] [µM] | Ki [2] [µM] | Ki [3] [µM] | Ki [4] [µM]
Oc1ccc(/C=C2\CCCN=C2c2cccnc2)cc1 | 0.444 | 0.347 | 0.36 | 0.45
CCCc1ccc(/C=C2\CCCN=C2c2cccnc2)cc1 | 0.553 | 0.051 | 0.28 | 0.89
CNc1ccc(/C=C2\CCCN=C2c2cccnc2)cc1 | 1.3 | 1.3 | 0.05 | 0.05
CC(=O)c1ccc(/C=C2\CCCN=C2c2cccnc2)cc1 |  |  |  | 4.49
Cc1cc(C)c(/C=C2\CCCN=C2c2cccnc2)c(C)c1 | 0.179 | 0.284 | 1.51 | 0.52
OCCN(CCO)c1ccc(/C=C2\CCCN=C2c2cccnc2)cc1 | 0.721 | 0.796 | 0.19 | 0.16
FC(F)Oc1ccc(/C=C2\CCCN=C2c2cccnc2)cc1 | 0.004 | 0.064 | 1.01 | 1.16
C(=C1/CCCN=C1c1cccnc1)/c1cc2ccccc2o1 | 0.823 | 0.772 |  | 
Cc1cc(O)cc(C)c1/C=C1\CCCN=C1c1cccnc1 | 0.74 | 0.174 | 5.49 | 0.67
Oc1cccc(/C=C2\CCCN=C2c2cccnc2)c1 | 0.824 | 0.068 | 0.15 | 1.17
COc1cc(/C=C2\CCCN=C2c2cccnc2)cc(OC)c1OC | 0.542 | 0.669 | 3.48 | 4.67
COc1ccc(/C=C2\CCCN=C2c2cccnc2)c(OC(C)=O)c1 | 0.523 | 0.114 | 0.3 | 0.77
Cc1cc(/C=C2\CCCN=C2c2cccnc2)cc(C)c1O | 0.276 | 0.444 | 0.53 | 0.36
COc1ccc(/C=C2\CCCN=C2c2cccnc2)cc1 | 0.244 | 0.31 | 0.57 | 0.49
FC(F)(F)Oc1ccc(/C=C2\CCCN=C2c2cccnc2)cc1 |  |  |  | 0.93
COc1ccc(/C=C2\CCCN=C2c2cccnc2)c(OC)c1 [GTS-21] | 0.886 | 0.602 | 0.13 | 0.25
COc1ccc(/C=C2\CCCN=C2c2cccnc2)c(OC(C)C)c1 | 1.16 | 0.77 | 0.07 | 0.17
CCCCOc1ccc(/C=C2\CCCN=C2c2cccnc2)cc1 |  |  |  | 1.96
CC(C)(C)C(=O)Oc1ccc(/C=C2\CCCN=C2c2cccnc2)cc1 | 0.161 | 0.081 | 0.69 | 0.83
CN(C)c1ccc(/C=C2\CCCN=C2c2cccnc2)cc1 | 1.1 | 0.77 | 0.08 | 0.17
COc1cccc(/C=C2\CCCN=C2c2cccnc2)c1 | 0.337 | 0.072 | 0.46 | 1.18
CC(C)(C)Oc1ccc(/C=C2\CCCN=C2c2cccnc2)cc1 | 0.348 | 0.336 | 2.23 | 2.17

Source: ChEMBL document CHEMBL1165900, “A computational study of the binding of 3-(arylidene) anabaseines to two major brain nicotinic acetylcholine receptors and to the acetylcholine binding protein” (Eur J Med Chem, 2010)
